Legend:
[1] = biological target: T1, hTLR8 (Homo sapiens, UniProt Q9NR97); assay: agonistic activity on hTLR8, HEK-Blue hTLR cells, SEAP reporter (QUANTI-Blue); format: cell-based; conditions: HEK-Blue hTLR cells, SEAP reporter, OD650, cultured 1 day; read-out: TLR 8 EC50
T1 construct: expressed in transfected cells; host or cells: HEK-Blue hTLR cells
T1 sequence (Q9NR97 27-1041): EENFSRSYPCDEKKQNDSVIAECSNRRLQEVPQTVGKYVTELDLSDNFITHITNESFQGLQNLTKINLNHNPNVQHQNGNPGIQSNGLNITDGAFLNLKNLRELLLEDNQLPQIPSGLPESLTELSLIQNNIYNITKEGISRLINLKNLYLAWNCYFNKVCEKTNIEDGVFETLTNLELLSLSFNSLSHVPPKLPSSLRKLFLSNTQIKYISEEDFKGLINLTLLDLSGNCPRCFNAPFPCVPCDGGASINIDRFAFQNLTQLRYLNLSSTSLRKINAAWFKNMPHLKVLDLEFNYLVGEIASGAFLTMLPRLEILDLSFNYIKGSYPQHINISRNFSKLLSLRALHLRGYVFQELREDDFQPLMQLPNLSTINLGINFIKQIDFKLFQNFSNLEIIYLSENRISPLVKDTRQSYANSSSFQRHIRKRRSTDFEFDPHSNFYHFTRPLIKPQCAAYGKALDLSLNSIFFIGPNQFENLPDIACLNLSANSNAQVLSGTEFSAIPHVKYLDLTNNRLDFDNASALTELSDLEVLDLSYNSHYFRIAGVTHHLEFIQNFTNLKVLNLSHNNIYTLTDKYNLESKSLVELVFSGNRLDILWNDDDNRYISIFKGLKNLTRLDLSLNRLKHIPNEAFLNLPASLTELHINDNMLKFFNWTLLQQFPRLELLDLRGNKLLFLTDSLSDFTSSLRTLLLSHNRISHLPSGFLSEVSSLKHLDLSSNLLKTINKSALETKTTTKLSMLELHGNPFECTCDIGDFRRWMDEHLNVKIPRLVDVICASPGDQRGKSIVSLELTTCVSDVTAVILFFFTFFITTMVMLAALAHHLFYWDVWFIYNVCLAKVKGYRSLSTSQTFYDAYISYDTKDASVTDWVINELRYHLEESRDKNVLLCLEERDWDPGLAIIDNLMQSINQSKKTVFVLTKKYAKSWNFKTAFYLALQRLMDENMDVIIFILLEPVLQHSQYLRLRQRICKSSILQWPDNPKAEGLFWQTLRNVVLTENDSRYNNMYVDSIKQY
Description: Experiments on the agonistic activity of TLR7 and TLR8 by the compounds in vitro
(§1) The compound was diluted with 1:3 series with DMSO for 9 concentration points, duplicated wells, and added to 96-well plate with Echo.
(§2) The HEK-Blue™ hTLR cells were suspended in the culture medium and then seeded into a 96-well plate containing the compound at a density of 50,000 cells/well. Cells were cultured at 5% CO2 and 37° C. for 1 day. The final concentration of DMSO in the cell culture medium was 0.5%.
20 uL cell culture supernatant was taken, according to the QUANTI-Blue instructions, the reporter gene SEAP in the supernatant was detected, and the OD650 signal value was read with a microplate reader to calculate the agonist activity of the compound on the hTLR7 and hTLR8.
(§3) The EC50 and CC50 values of the compound were calculated by GraphPad Prism software, and the fitting curve was plotted.

[2] = cytotoxicity, cell viability by CellTiter-Glo; format: cell-based, human; conditions: human, HEK-Blue hTLR cells, cultured 1 day
Description: as §1, §2
According to the CellTiter-Glo instructions, the cell viability was measured, and the Luminescence signal value was read by the microplate reader, which was used to calculate the cytotoxicity of the compound.
as §3

Compound	EC50 [1]	CC50 at 1 day [2]
CCOCc1nc2c(N)nc3ccccc3c2n1C[C@@H](C)O[P@](=O)(N[C@@H](C)C(=O)OC(C)C)Oc1ccc(Cl)cc1 (single isomer, unassigned) [Example 12B]	49 nM	> 30000 nM
CCOCc1nc2c(N)nc3ccccc3c2n1C[C@@H](C)O[P@@](=O)(N[C@H](C)C(=O)OC(C)C)Oc1ccccc1 (single isomer, unassigned) [Example 13A]	764 nM	> 30000 nM
CCOCc1nc2c(N)nc3ccccc3c2n1C[C@@H](C)O[P@](=O)(N[C@@H](C)C(=O)OC(C)C)Oc1cccc(C)c1 (single isomer, unassigned) [Example 8B]	65 nM	> 30000 nM
CCOCc1nc2c(N)nc3ccccc3c2n1C[C@@H](C)O[P@](=O)(N[C@@H](C)C(C)C)Oc1ccc(Cl)cc1 [Example 23B, (R)-1-(4-amino-2-(ethoxymethyl)-1H-imidazo [4,5-c]quinolin-1-yl) propan-2-yl (4-chlorophenyl) (R)—((S)-3-methylbutan-2-yl) phosphoramide]	18000 nM	
CCOCc1nc2c(N)nc3ccccc3c2n1C[C@@H](C)O[P@](=O)(N[C@@H](C)C(=O)OC(C)C)Oc1ccccc1Cl (single isomer, unassigned) [Example 10B]	13 nM	> 30000 nM
CCOCc1nc2c(N)nc3ccccc3c2n1C[C@@H](C)O[P@@](=O)(N[C@@H](C)C(=O)OC)Oc1ccccc1 (single isomer, unassigned) [Example 15A]	68 nM	> 30000 nM
CCOCc1nc2c(N)nc3ccccc3c2n1C[C@@H](C)O[P@@](=O)(N[C@@H](C)C(=O)OC(C)C)Oc1cccc(C)c1 (single isomer, unassigned) [Example 8A]	36 nM	> 30000 nM
CCOCc1nc2c(N)nc3ccccc3c2n1C[C@@H](C)O[P@](=O)(N[C@@H](C)C(=O)OC(C)(C)C)Oc1ccc(Cl)cc1 (single isomer, unassigned) [Example 19B]	2540 nM	> 30000 nM
CCOCc1nc2c(N)nc3ccccc3c2n1C[C@@H](C)OP(=O)(N[C@@H](C)C(F)(F)F)Oc1ccccc1 (single isomer, unassigned) [Example 24A]	> 30000 nM	
CCOCc1nc2c(N)nc3ccccc3c2n1C[C@@H](C)O[P@](=O)(N[C@@H](C)C(=O)OC(C)(C)C)Oc1ccccc1 (single isomer, unassigned) [Example 14B]	1290 nM	> 30000 nM
CCOCc1nc2c(N)nc3ccccc3c2n1C[C@@H](C)O[P@](=O)(N[C@@H](C)C(=O)OC(C)(C)C)Oc1ccc(C)cc1 (single isomer, unassigned) [Example 17B]	2920 nM	> 30000 nM
CCOCc1nc2c(N)nc3ccccc3c2n1C[C@@H](C)O[P@](=O)(N[C@@H](C)C(=O)OC(C)C)Oc1cccc(Cl)c1 (single isomer, unassigned) [Example 11B]	71 nM	> 30000 nM
CCOCc1nc2c(N)nc3ccccc3c2n1C[C@@H](C)O[P@](=O)(N[C@@H](C)C(=O)OC)Oc1ccccc1 (single isomer, unassigned) [Example 15B]	48 nM	> 30000 nM
CCOCc1nc2c(N)nc3ccccc3c2n1CC(C)(C)O [Example R848, reference compound]		> 10000 nM
CCOCc1nc2c(N)nc3ccccc3c2n1C[C@@H](C)O[P@](=O)(N[C@@H](C)COC)Oc1ccc(Cl)cc1 [Example 25B, (R)-1-(4-amino-2-(ethoxymethyl)-1H-imidazo [4,5-c]quinolin-1-yl) propan-2-yl (4-chlorophenyl) (R)—((S)-1-methoxypropan-2-yl) Phosphoramide]	> 30000 nM	
CCOCc1nc2c(N)nc3ccccc3c2n1C[C@@H](C)O[P@](=O)(N[C@@H](C)C(=O)OC(C)C)Oc1ccc2ccccc2c1 (single isomer, unassigned) [Example 6B]	23 nM	> 30000 nM
CCOCc1nc2c(N)nc3ccccc3c2n1C[C@@H](C)O[P@](=O)(N[C@@H](C)C(F)(F)F)Oc1ccc(Cl)cc1 [Example 24B, (R)-1-(4-amino-2-(ethoxymethyl)-1H-imidazo [4,5-c]quinolin-1-yl) propan-2-yl (4-chlorophenyl) (R)—((S)-1,1,1-trifluoropropan-2-yl) phosphoramide]	> 30000 nM	
CCOCc1nc2c(N)nc3ccccc3c2n1C[C@@H](C)O[P@](=O)(N[C@@H](C)C(=O)OCc1ccccc1)Oc1ccccc1 (single isomer, unassigned) [Example 16B]	11.5 nM	> 30000 nM
CCOCc1nc2c(N)nc3ccccc3c2n1C[C@@H](C)OP(=O)(N[C@H](C(=O)OC(C)(C)C)C(C)C)Oc1ccc(Cl)cc1 (stereo partly shown) [Example 22]	1820 nM	
CCOCc1nc2c(N)nc3ccccc3c2n1C[C@@H](C)O[P@@](=O)(N[C@@H](C)C(C)C)Oc1ccc(Cl)cc1 [Example 23A, (R)-1-(4-amino-2-(ethoxymethyl)-1H-imidazo [4,5-c]quinolin-1-yl) propan-2-yl (4-chlorophenyl) (S)—((S)-3-methylbutan-2-yl) phosphoramide]	> 30000 nM	
CCOCc1nc2c(N)nc3ccccc3c2n1C[C@@H](C)O[P@](=O)(N[C@@H](C)C(=O)OC(C)(C)C)Oc1ccc(OC)cc1 (single isomer, unassigned) [Example 18B]	2450 nM	> 30000 nM
CCOCc1nc2c(N)nc3ccccc3c2n1C[C@@H](C)O[P@](=O)(N[C@@H](C)C(=O)OC(C)C)Oc1ccccc1C (single isomer, unassigned) [Example 7B]	41 nM	> 30000 nM
CCOCc1nc2c(N)nc3ccccc3c2n1C[C@@H](C)O[P@](=O)(N[C@@H](C)C(=O)OC(C)C)Oc1ccc(C)cc1 (single isomer, unassigned) [Example 9B]	71 nM	> 30000 nM
CCOCc1nc2c(N)nc3ccccc3c2n1C[C@@H](C)O[P@@](=O)(N[C@@H](C)COC)Oc1ccc(Cl)cc1 [Example 25A, (R)-1-(4-amino-2-(ethoxymethyl)-1H-imidazo [4,5-c]quinolin-1-yl) propan-2-yl (4-chlorophenyl) (S)—((S)-1-methoxypropan-2-yl) phosphoramide]	> 30000 nM	
CCOCc1nc2c(N)nc3ccccc3c2n1C[C@@H](C)O[P@](=O)(N[C@H](C)C(=O)OC(C)C)Oc1ccccc1 (single isomer, unassigned) [Example 13B]	1850 nM	> 30000 nM
CCOCc1nc2c(N)nc3ccccc3c2n1C[C@@H](C)O[P@@](=O)(N[C@@H](C)C(=O)OC(C)C)Oc1ccccc1C (single isomer, unassigned) [Example 7A]	213 nM	> 30000 nM
CCOCc1nc2c(N)nc3ccccc3c2n1C[C@@H](C)O[P@@](=O)(N[C@@H](C)C(=O)OC(C)C)Oc1ccccc1Cl (single isomer, unassigned) [Example 10A]	34 nM	> 30000 nM
